From patent publication US20210023523A1, “PARALLEL ORGANIC SYNTHESIS ON PATTERNED PAPER USING A SOLVENT-REPELLING MATERIAL” (The Governors of the University of Alberta, priority 2013, published 2021)

Experiments:
[1] = system: MCF-7 breast cancer cells; experiment: Culture of MCF-7 cells on peptide-modified array with or without paclitaxel (Taxol); format: cell-based; conditions: cells cultured on a peptide that induced morphological changes; Taxol for the last 4 days of seven; without drug: spread cells forming aggregate
From the text: FIG. 19 illustrates changes such as drug-resistance and morphology observed when a peptide-modified array supported culture of MCF-7 breast cancer cells for seven days and was exposed to the anti-cancer drug paclitaxel (Taxol) for the last 4 days. FIG. 19a presents confocal images of calcein-stained cells after culture in media without taxol for four peptides (including two controls) and FIG. 19b correspond to cells cultured in media with Taxol.

MDA-MB-231-GFP cells = experiment: Short-term adhesion of MDA-MB-231-GFP cells to peptides synthesized on Teflon-patterned paper arrays; format: cell-based; conditions: for binding of cells to peptide-modified paper: confocal microscopy, FIG. 10b, 3 hours of incubation
Experimental: When immobilized on paper, 5 out of the 8 peptides synthesized supported adhesion of MDA-MB-231 breast carcinoma at levels similar to or higher than the positive control GRGDS. The other three peptides supported greater adhesion than the scrambled peptide, GGRDS.
The images represent short term adhesion of cells after 3 hours of incubation on the array.
In FIG. 14(a), a fluorescent gel scanner was used to validate adhesion of MDA-MB-231-GFP cells to phage-derived peptides on peptide-arrays. […] FIG. 14(c) illustrates digitization of the number of cells per zone from fluorescent gel scanner images of the 32 peptides. The (+) and (−) lines represent the intensity level of the positive and negative controls.
FIG. 18 illustrates a typical cell-binding experiment on a half array (40 peptides identified from two panning experiments, and 8 controls). […] FIG. 18c consists of the zones of interest for each peptide extracted from FIG. 18a, and organized by peptides. The average intensity of fluorescence for each peptide zone is then converted into a number of cells per zone through a calibration curve previously established for these cells (FIG. 18d). FIG. 18e is the resulting plot with standard deviation over the four replicates.

Row | Compound | cell morphology [1] | binding of cells to peptide-modified paper (MDA-MB-231-GFP cells) | adhesion of MDA-MB-231 breast carcinoma cells to peptide immobilized on paper (MDA-MB-231-GFP cells; fluorescent gel scanner (GFP fluorescence), 3 hours of incubation on the array, known bioactive peptides, FIG. 10a)
1 | CC(=O)O[C@H]1C(=O)[C@@]2(C)[C@H]([C@H](OC(=O)c3ccccc3)[C@]3(O)C[C@H](OC(=O)[C@H](O)[C@@H](NC(=O)c4ccccc4)c4ccccc4)C(C)=C1C3(C)C)[C@]1(OC(C)=O)CO[C@@H]1C[C@@H]2O [Taxol, paclitaxel] | isolated, rounded cells | – | –
2 | GRGDS (peptide identified by phage display panning on MDA-MB-231 cells) | – | binding | –
3 | GGRDS (peptide identified by phage display panning on MDA-MB-231 cells) [scrambled peptide, negative control] | – | no binding | minimal binding
